Test system: male spontaneously hypertensive rats
Assay: Decrease in systolic blood pressure in spontaneously hypertensive rats after intravenous bolus injection, indirect (tail-cuff) method
Type: in vivo, rat
Settings: for Decrease in systolic blood pressure (mmHg) time after administration (hour) 0.5: 0.5 hour after administration; for Decrease in systolic blood pressure (mmHg) time after administration (hour) 4: 4 hours after administration
Procedure: As test animals, four male spontaneously hypertensive rats (weight 400 to 440 g) that were sufficiently adapted for feeding and in which hypertension was confirmed were used.
Physiological saline aqueous solution containing 2.5% Nicolle and 2.5% ethanol of sample was intravenously administered by bolus injection at a dose of 1 ml per 1 kg of body weight. Systolic blood pressure after administration was measured by the indirect (tail-cuff) method.

| Compound | Decrease in systolic blood pressure (mmHg) time after administration (hour) 0.5 (dose 10 mg/kg i.v. bolus) | Decrease in systolic blood pressure (mmHg) time after administration (hour) 4 (dose 10 mg/kg i.v. bolus) | Decrease in systolic blood pressure (mmHg) time after administration (hour) 0.5 (dose 3 mg/kg i.v. bolus) | Decrease in systolic blood pressure (mmHg) time after administration (hour) 4 (dose 3 mg/kg i.v. bolus) |
| --- | --- | --- | --- | --- |
| Cl.O=C(CCN1CCC(=C2c3ccccc3C=Cc3ccccc32)CC1)NC1CCCCC1 [Example 226, N-(3,(4-(5H-Dibenzo[a,d]cyclohepten-5-ylidene)-1-piperidinyl)propanoyl)cyclohexylamine hydrochloride] | −131 mmHg | −16 mmHg |  |  |
| Cl.Clc1cccc(CN2CCC(=C3c4ccccc4C=Cc4ccccc43)CC2)c1 [Example 129, 1-(3-Chlorobenzyl)-4-(5H-Dibenzo[a,d]cyclohepten-5-ylidene)piperidine hydrochloride] | −17 mmHg | −1 mmHg |  |  |
| C1=Cc2ccccc2C(=C2CCN(CCCC3CCCNC3)CC2)c2ccccc21.Cl.Cl (centres unmarked) [Example 281, 3-(4-(5H-Dibenzo[a,d]cyclohepten-5-ylidene)-1-piperidinyl)-1-(3-piperidinyl)propane dihydrochloride] | −31 mmHg | −5 mmHg |  |  |
| Cl.Fc1ccc(C2(CCCN3CCC(=C4c5ccccc5C=Cc5ccccc54)CC3)OCCO2)cc1 [Example 124] | −90 mmHg | −20 mmHg |  |  |
| C1=Cc2ccccc2C(=C2CCN(CCC3CCCCC3)CC2)c2ccccc21.Cl [Example 8, 1-Cyclohexyl-2-(4-(5H-dibenzo[a,d]cyclohepten-5-ylidene)-1-piperidinyl)ethane hydrochloride] | −95 mmHg | −21 mmHg |  |  |
| 5-(4-(5H-Dibenzo[a,d]cyclohepten-5-ylidene)-1-piperidinyl-2-(3,4-dimethoxyphenyl)valeronitrile hydrochloride [Example 123] | −55 mmHg | −7 mmHg |  |  |
| CCCCCCC(C#N)(CCCN1CCC(=C2c3ccccc3C=Cc3ccccc32)CC1)c1cccc(C(F)(F)F)c1.Cl (centres unmarked) [Example 151, 5-(4-(5H-Dibenzo[ac]cyclohepten-5-ylidene)-1-piperidinyl)-2-hexyl-2-(3-trifluoromethylphenyl)valeronitrile hydrochloride] | −81 mmHg | −43 mmHg |  |  |
| COc1ccc(C(=O)CCN2CCC(=C3c4ccccc4C=Cc4ccccc43)CC2)cc1OC.Cl [Example 168, 3-(4-(5H-Dibenzo[a,d]cyclohepten-5-ylidene)-1-piperidinyl)-3′,4′-dimethoxypropiophenone hydrochloride] | −108 mmHg | 0 mmHg |  |  |
| CCOC(=O)C1CCN(C(=O)CCCN2CCC(=C3c4ccccc4C=Cc4ccccc43)CC2)CC1.Cl [Example 217, 1-(4-(4-(5H-Dibenzo[a,d]cyclohepten-5-ylidene)-1-piperidinyl)butanoyl)-4-ethoxyxarbonpiperidine hydrochloride] | −18 mmHg | −20 mmHg |  |  |
| COC1CCC(CCCN2CCC(=C3c4ccccc4C=Cc4ccccc43)CC2)CC1.Cl (centres unmarked) [Example 324, 1-(1-(4-Methoxy)cyclohecyl)-3-(4-(5H-Dibenzo[a,d]cyclohepten-5-ylidene)-1-piperidinyl)propane hydrochloride] | −137 mmHg | −46 mmHg |  |  |
| C1=Cc2ccccc2C(=C2CCN(Cc3ccncc3)CC2)c2ccccc21.Cl.Cl [Example 163, 4-(5H-Dibenzo[a,d]cyclohepten-5-ylidene)-1-(4-Picolyl)piperidine dihydrochloride] | −1 mmHg | 4 mmHg |  |  |
| COc1ccc(CCCN2CCC(=C3c4ccccc4C=Cc4ccccc43)CC2)c(OC)c1.Cl.Cl [Example 328, 3-(4-(5H-Dibenzo[a,d]cyclohepten-5-ylidene)-1-piperidinyl)-1-(2,4-dimethoxyphenyl)propane dihydrochloride] | −125 mmHg | −87 mmHg |  |  |
| CC(=O)N(CCCN1CCC(=C2c3ccccc3C=Cc3ccccc32)CC1)C1CCCCC1.Cl [Example 267, N-Acetyl-N-(3-4-(5H-Dibenzo[a,d]cyclohepten-5-ylidene)-1-piperidinyl)-1-propylcyclohexylamine hydrochloride] | −40 mmHg | 0 mmHg |  |  |
| CCC(=O)Nc1ccc(C=CCN2CCC(=C3c4ccccc4C=Cc4ccccc43)CC2)cc1.Cl [Example 370, 4-(5H-Dibenzo[a,d]cyclohepten-5-ylidene)-1-(4-propanoylaminocinnamyl)piperidine hydrochloride] | −99 mmHg | −69 mmHg |  |  |
| COc1cc2c(cc1OC)CC(CCN1CCC(=C3c4ccccc4C=Cc4ccccc43)CC1)C2.Cl [Example 240] |  |  | −118 mmHg | −5 mmHg |
| COc1ccc(C(=O)CCCCN2CCC(=C3c4ccccc4C=Cc4ccccc43)CC2)cc1OC.Cl [Example 169, 5-(4-(5H-Dibenzo[a,d]cyclohepten-5-ylidene)-1-piperidinyl)-3′,4′-dimethoxyvalerophenone hydrochloride] | −130 mmHg | −4 mmHg |  |  |
| Cl.Fc1ccc(C=CCN2CCC(=C3c4ccccc4C=Cc4ccccc43)CC2)cc1 [Example 353] | −147 mmHg | −138 mmHg |  |  |
| Cl.Cl.Nc1ccc(CCCN2CCC(=C3c4ccccc4C=Cc4ccccc43)CC2)cc1 [Example 248, 1-(4-Aminophenyl)-3-(4-(5H-Dibenzo[a,d]cyclohepten-5-ylidene)-1-piperidinyl)propane dihydrochloride] | −101 mmHg | −92 mmHg |  |  |
| Cl.Fc1c(F)c(F)c(CN2CCC(=C3c4ccccc4C=Cc4ccccc43)CC2)c(F)c1F [Example 120, 4-(5H-Dibenzo[a,d]cyclohepten-5-ylidene)-1-pentafluorobenzylpiperidine hydrochloride] |  |  | −17 mmHg | −12 mmHg |
